Series [1] addresses T1, DYRK3 (Homo sapiens, UniProt O43781).
T1 construct: purchased Life Technologies (Kinase Profiler service)
T1 sequence (O43781 1-588): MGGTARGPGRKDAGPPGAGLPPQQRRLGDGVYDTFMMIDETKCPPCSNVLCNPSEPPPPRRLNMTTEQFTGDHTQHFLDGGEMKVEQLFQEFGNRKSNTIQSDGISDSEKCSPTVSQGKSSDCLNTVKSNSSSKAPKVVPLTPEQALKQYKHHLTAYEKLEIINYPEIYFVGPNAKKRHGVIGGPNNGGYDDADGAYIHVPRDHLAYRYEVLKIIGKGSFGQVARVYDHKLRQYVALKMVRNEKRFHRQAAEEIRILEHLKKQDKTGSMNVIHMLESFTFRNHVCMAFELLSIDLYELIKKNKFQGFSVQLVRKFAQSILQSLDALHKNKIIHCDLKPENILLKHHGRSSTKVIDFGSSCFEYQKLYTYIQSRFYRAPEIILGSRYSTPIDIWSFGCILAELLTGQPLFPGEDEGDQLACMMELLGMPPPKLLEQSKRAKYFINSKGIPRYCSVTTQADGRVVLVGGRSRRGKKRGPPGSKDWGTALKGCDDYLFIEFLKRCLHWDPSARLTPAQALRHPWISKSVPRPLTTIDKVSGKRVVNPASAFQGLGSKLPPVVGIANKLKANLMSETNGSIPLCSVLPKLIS
Kind of series: In vitro kinase assay, recombinant human DYRK3 (Life Technologies). It is filed as biochemical.

For series [2], the system named is calcineurin-NFAT signaling. The series can be described thus: NFAT-RE promoter luciferase reporter assay (NRE-Luc) in 293T cells. In kind it is cell-based. The note with it: IM and PMA (10 nM), 1, 3 and 10 μM. On the procedure:
Fig. 5. […] Firefly luciferase activities were measured using One-Glo reagents. Luciferase activity in the sample with reporter plasmid alone was set to 1, and the relative luciferase activities were calculated. Means±s.d. were determined from two independent experiments.
Treatment with IM and phorbol 12-myristate 13-acetate (PMA) induced a dramatic increase in luciferase activity (∼20 fold) as a result of the nuclear translocation of NFATc1 and the subsequent transcriptional activation (Fig. 5B). In this situation, the overexpression of DYRK1A suppressed the stimulatory effect of IM and PMA by 75%, resulting in a 4.5-fold increase in luciferase activity compared with that of the control (Fig. 5B).
The firefly luciferase reporter assay was performed using a One-Glo Assay System (Promega) according to the manufacturer's instructions. The transcriptional activity of NFATc1 in 293T cells was measured with a reporter vector (pGL4.30 luc2P/NFAT-RE/Hygro) (Promega) that expresses the firefly luciferase gene under the control of an NFAT-RE promoter. 293T cells were transfected with the DYRK1A-expressing plasmid and reporter plasmid. On the next day, cells were treated with IM (2.5 μM) and phorbol-12-myristate-13-acetate (10 nM) along with the indicated amounts of inhibitors. Cells were further incubated for 8 h and then cell lysates were harvested to measure luciferase activity.
(Reporter assays use an easily measured gene product as a stand-in for the process of interest.)

Series [3] relates to mnb-overexpressing Drosophila. Kind of series: Wing vein (LV5) defect rescue in mnb-overexpressing flies (MS1096-gal4). In kind it is in vivo, Drosophila melanogaster. The note with it: larvae fed for 2 weeks.
Series [4] has as its system mnb-overexpressing Drosophila. The series can be described thus: Eye phenotype in flies overexpressing human Tau with or without mnb (GMR-Gal4). It is filed as in vivo, Drosophila melanogaster. The note with it: feeding with 100 nM, GMR>Tau and GMR>mnb+Tau. An excerpt:
The expression of human Tau in Drosophila retinal tissue (GMR>Tau) produced a small rough eye phenotype (GMR>Tau in Fig. 6A and B), as described previously ([Jackson et al., 2002]). […] Pan-neuronal mnb overexpression (elav::synGFP>mnb) caused severe neurogenic defects in both the central and peripheral nervous system during embryogenesis [elav::synGFP>mnb (DMSO) in Fig. 6C]. […] Moreover, the viability of adult flies with the neuronal overexpression of mnb was examined. Pan-neuronal overexpression of mnb caused high rates of mortality in adult flies (∼70%, Fig. 6D).
Fig. 6. CX-4945 rescues neurological and phenotypic defects in an mnb-overexpressing Drosophila model. […] (B) The retinal surface areas were measured on multiple samples (n>10) from each genotype, and average eye sizes were presented as normalized percentages of the DMSO-treated GMR-Gal4 control. […]
Drosophila melanogaster were cultured at 25°C on standard cornmeal medium. […] For defining optimal concentration of chemical inhibitors, 50 embryos of each genotype were raised on drug-containing food (0, 1 nM, 10 nM, 100 nM, 1 µM, 10 µM and 25 µM in 0.05% DMSO) and allowed to develop to adulthood (viability assay and wing vein quantification assay). […] Fly eye sizes were measured on multiple samples (n>10) from each genotype using the National Institutes of Health ImageJ software. […]

On the set-up of series [5]: method as in Senhwa Biosciences (2014). The note with it: phase I clinical trials as cancer therapeutic; ref Senhwa Biosciences (2014); cited from earlier work.

A word on the IC50: it is the concentration at which inhibition is half-maximal. For the compound `O=C(O)c1ccc2c(c1)nc(Nc1cccc(Cl)c1)c1ccncc12` [CX-4945], the IC50 in series [1] worked out at 18 nM. Also, in series [2], the “NFATc1-dependent transcriptional activation (NRE-Luc) suppressed by DYRK1A overexpression” value was “reversed the effect of DYRK1A overexpression in a dose-dependent manner”. For the same compound, in series [3], the “concentration giving apparent rescue of wing (LV5) defect” value was 10 to 100 nM. Also, the “eye defects induced by overexpression of Tau alone or with mnb” value in series [4] is “significantly mitigated”. Besides, in series [5], the clinical safety entry is “safety has been already proven”.

The values are drawn from publication PMC5007978, “A chemical with proven clinical safety rescues Down-syndrome-related phenotypes in through DYRK1A inhibition” (Disease Models & Mechanisms, 2016).
